Measured values published in patent US8642566B2, “Therapeutic approaches for treating neuroinflammatory conditions” (Pharnext, priority 2009, dated 2014).

What was measured:
[1] = system: MOG-immunized mice developing chronic progressive EAE; assay: Acute onset EAE study, 28 days after EAE induction (Example 1); assay type: in vivo, C57BL/6 mice; conditions: day 28; treatment from 3 weeks before EAE induction; clopidogrel oral, mecamylamine subcutaneous minipump; combination vs placebo p value less than 0.05
[2] = system: MOG-immunized mice developing chronic progressive EAE; assay: Chronic phase EAE study, 70 days post EAE induction (Example 1); assay type: in vivo, C57BL/6 mice; conditions: Manova p<0.005; initial mean weights of all groups equal
Description: Prepare the emulsion containing MOG35-55 stock, PBS and CFA. The volume of MOG35-55 stock=[(The volume of the emulsion)×(1.5 g/L)]/[(3×10-3 mol/L)×(2581.6 g/mol)]; the volume of PBS=[(The volume of the emulsion)/2]−(The volume of MOG35-55 stock); The volume of CFA=(The volume of the emulsion)/2. The emulsion is prepared by diluting the MOG35-55 stock with PBS and then mix equal volumes of this diluent and CFA. The final concentration of MOG35-55 is 300 μg per 200 μL emulsion for each mouse. Air bubbles should be avoided and the syringe must be kept at 4° C. until injection. Before use the stability of the emulsion is tested by adding one drop into a beaker of water: if the drop remains as a solid clump and slowly dissipates, then the emulsion is stable and may be injected.
Mice are anesthetized with 2% Pentobarbital sodium (i.p injection, 70˜90 μL/mouse) and kept warm under infrared lamp. Injection of 200 ng Pertussis toxin in 200 μL PBS/mouse is performed (i.v.; tail vein) using a 1-mL syringe with 0.4-mm needle. The previously described emulsion is subcutaneously administered with a 1-mL syringe with 0.4-mm needle.
Mice are kept warm under infrared lamp to perform injection of 200 ng Pertussis toxin in 200 μL PBS via i.v. (tail vein) route, as described for MOG35-55 injection.
A chronic phase study is run for 70 days post EAE induction. […]

[3] = system: mouse EAE model (MOG35-55 immunization); assay: Mouse EAE model, acute oral treatment Day 14 to Day 28, global clinical score (Example 2); assay type: in vivo, C57L/6J female mice; conditions: Day 16 to Day 28 after immunization, 1/60 of usual therapeutic doses (clopidogrel hydrogen sulfate 270 μg/kg/day, mecamylamine hydrochloride 9 μg/kg/day), vs EAE mice without treatment
Description: In this experiment, both drugs are equally diluted to ultra-low doses corresponding to 1/60 of their usual therapeutic doses, and importantly, both are administered orally. Protocols for EAE induction and clinical score calculations in this experiment are slightly modified and are described in detail below:
C57L/6J female mice (8 weeks old) are purchased from Janvier (France); after two weeks of habituation, female mice (10 weeks old) develop chronic paralysis after immunization with MOG (Myelin Oligodendrocyte Glycoprotein) peptide. The experimental encephalomyelitis is induced with the Hooke Kit MOG35-55/CFA Emulsion PTX (Pertussis toxin) for EAE Induction (EK-0110, EK-0115; Hooke laboratories). The control kit is CK-0115 (Hooke laboratories).
The day 0, two subcutaneous injections of 0.1 ml each are performed; one on upper back of the mouse and one in lower back. Each injection contains 100 μg of MOG35-55 peptide ([sequence]), 200 μg of inactivated Mycobacterium tuberculosis H37Ra and is emulsified in Complete Freund's adjuvant (CFA) (Hooke laboratories). The emulsion provides antigen needed to expand and differentiate MOG-specific autoimmune T cells. […]
The global score for each animal is determined by the addition of all the above mentioned categories. […]

SMILES | Histological examination: perivascular lymphocyte infiltrate inflammation (perivascular cuffing) in spinal section [1] | Weight gain, Post Hoc comparison with control group treated with placebo (vehicle) [2] | Global clinical score (tail, hind limb, fore limb and bladder scores) [3]
COC(=O)[C@H](c1ccccc1Cl)N1CCc2sccc2C1 [clopidogrel] | different degrees of perivascular inflammation | different from the control group | no positive effects
CNC1(C)C2CCC(C2)C1(C)C (stereo not drawn) [mecamylamine] | different degrees of perivascular inflammation | different from the control group | no positive effects
